From patent US9708318B2, “Bicyclic heterocycles as FGFR4 inhibitors” (Incyte Corporation, priority 2015, dated 2017)
Like-named read-outs stand apart in the source and are kept apart here.

Columns and labels:
[1] = molecular target: FGFR2 (Homo sapiens (Human), UniProt P21802); assay: FGFR Enzymatic Assay (FRET peptide phosphorylation), FGFR2; format: biochemical
Description: (§1) The inhibitor potency of the exemplified compounds was measured in an enzyme assay that measures peptide phosphorylation using FRET measurements to detect product formation. Inhibitors were serially diluted in DMSO and a volume of 0.5 μL was transferred to the wells of a 384-well plate.
(§2) The enzymes were purchased from Millipore or Invitrogen.
(§3) GraphPad prism3 was used to analyze the data.

[2] = molecular target: FGFR3 enzyme (Homo sapiens (Human), UniProt P22607); assay: FGFR Enzymatic Assay (FRET peptide phosphorylation), FGFR3; format: biochemical; settings: for FGFR1/FGFR3 IC50 ratio / FGFR4/FGFR3 IC50 ratio: FGFR3 selectivity; for IC50: read-out: FGFR3 IC50
Description: as §1, §3

[3] = molecular target: FGFR4 (Homo sapiens (Human), UniProt P22455); assay: FGFR Enzymatic Assay (FRET peptide phosphorylation), FGFR4; format: biochemical; settings: for FGFR1/FGFR4 IC50 ratio / FGFR2/FGFR4 IC50 ratio / FGFR3/FGFR4 IC50 ratio: FGFR4 selectivity
Description: as §1, §2, §3

[4] = molecular target: FGFR1 (Homo sapiens (Human), UniProt P11362); assay: FGFR Enzymatic Assay (FRET peptide phosphorylation), FGFR1
[5] = pre-incubated for 5 to 10 minutes
[6] = read-out: FGFR1 IC50, pre-incubated for 5 to 10 minutes
[7] = read-out: FGFR1 IC50, pre-incubated for 4 hours
[8] = FGFR1 IC50 (nM), pre-incubated for 4 hours

Chain of FGFR4 (P22455 22-802): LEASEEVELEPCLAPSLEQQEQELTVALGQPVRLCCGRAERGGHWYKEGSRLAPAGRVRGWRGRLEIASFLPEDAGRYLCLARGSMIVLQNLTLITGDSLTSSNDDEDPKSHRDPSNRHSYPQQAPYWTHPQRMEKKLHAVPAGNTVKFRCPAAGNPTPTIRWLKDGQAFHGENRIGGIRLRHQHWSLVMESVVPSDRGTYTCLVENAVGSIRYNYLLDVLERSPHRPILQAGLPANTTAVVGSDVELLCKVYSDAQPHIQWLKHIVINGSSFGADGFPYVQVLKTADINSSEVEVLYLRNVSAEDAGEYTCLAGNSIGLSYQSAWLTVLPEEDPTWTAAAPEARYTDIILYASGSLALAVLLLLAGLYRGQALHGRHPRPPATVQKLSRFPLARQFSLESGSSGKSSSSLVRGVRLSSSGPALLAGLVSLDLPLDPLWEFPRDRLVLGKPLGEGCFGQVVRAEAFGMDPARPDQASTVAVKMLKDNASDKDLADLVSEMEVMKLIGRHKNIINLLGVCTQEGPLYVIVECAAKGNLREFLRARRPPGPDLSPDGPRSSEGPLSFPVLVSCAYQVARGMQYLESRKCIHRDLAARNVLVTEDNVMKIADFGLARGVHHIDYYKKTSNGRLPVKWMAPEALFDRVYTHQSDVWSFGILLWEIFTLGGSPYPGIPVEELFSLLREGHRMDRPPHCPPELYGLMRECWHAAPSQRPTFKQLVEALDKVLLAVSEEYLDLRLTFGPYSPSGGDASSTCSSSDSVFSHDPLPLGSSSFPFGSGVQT
Chain of FGFR1 (P11362 22-822): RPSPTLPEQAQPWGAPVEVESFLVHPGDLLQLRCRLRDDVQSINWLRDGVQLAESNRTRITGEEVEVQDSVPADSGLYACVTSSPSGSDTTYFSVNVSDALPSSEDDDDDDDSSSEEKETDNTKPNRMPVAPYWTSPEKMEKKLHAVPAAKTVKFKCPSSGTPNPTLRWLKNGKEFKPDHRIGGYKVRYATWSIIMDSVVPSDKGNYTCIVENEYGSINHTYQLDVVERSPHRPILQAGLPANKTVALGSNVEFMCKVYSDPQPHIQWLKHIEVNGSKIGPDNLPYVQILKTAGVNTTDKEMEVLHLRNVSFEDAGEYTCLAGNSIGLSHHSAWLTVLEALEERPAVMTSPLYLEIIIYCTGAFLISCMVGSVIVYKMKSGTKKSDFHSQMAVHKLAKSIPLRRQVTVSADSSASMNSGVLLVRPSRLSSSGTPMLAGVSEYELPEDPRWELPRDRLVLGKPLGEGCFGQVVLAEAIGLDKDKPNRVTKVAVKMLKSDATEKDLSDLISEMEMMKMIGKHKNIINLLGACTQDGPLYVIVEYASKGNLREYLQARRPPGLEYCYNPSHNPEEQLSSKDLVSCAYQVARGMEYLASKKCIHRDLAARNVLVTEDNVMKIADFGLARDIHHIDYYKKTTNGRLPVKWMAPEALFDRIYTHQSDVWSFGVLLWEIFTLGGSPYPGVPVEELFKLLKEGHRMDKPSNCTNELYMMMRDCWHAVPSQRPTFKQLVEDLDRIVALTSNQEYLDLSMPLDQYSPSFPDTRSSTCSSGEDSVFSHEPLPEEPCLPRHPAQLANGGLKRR
Chain of FGFR2 (P21802 22-821): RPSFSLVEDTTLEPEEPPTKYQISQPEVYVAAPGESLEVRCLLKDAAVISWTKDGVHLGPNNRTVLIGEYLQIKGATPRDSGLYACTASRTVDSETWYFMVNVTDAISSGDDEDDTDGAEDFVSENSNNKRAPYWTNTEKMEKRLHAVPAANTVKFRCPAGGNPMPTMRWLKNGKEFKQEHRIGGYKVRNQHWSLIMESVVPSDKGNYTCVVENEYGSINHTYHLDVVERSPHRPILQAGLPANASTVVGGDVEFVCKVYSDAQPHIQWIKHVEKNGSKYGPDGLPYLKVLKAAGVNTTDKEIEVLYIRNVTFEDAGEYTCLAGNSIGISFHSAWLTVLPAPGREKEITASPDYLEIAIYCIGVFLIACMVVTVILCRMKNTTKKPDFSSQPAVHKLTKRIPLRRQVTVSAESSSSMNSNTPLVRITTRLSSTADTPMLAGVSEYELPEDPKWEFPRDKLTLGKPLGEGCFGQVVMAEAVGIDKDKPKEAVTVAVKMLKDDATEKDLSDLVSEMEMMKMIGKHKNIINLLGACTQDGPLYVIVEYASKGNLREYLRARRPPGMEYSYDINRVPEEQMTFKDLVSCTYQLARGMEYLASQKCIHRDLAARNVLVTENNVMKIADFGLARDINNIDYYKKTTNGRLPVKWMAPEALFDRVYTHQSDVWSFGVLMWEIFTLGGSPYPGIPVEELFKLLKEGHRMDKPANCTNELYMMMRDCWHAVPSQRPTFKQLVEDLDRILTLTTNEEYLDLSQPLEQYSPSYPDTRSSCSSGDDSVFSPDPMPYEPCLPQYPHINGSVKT
Chain of FGFR3 enzyme (P22607 23-806): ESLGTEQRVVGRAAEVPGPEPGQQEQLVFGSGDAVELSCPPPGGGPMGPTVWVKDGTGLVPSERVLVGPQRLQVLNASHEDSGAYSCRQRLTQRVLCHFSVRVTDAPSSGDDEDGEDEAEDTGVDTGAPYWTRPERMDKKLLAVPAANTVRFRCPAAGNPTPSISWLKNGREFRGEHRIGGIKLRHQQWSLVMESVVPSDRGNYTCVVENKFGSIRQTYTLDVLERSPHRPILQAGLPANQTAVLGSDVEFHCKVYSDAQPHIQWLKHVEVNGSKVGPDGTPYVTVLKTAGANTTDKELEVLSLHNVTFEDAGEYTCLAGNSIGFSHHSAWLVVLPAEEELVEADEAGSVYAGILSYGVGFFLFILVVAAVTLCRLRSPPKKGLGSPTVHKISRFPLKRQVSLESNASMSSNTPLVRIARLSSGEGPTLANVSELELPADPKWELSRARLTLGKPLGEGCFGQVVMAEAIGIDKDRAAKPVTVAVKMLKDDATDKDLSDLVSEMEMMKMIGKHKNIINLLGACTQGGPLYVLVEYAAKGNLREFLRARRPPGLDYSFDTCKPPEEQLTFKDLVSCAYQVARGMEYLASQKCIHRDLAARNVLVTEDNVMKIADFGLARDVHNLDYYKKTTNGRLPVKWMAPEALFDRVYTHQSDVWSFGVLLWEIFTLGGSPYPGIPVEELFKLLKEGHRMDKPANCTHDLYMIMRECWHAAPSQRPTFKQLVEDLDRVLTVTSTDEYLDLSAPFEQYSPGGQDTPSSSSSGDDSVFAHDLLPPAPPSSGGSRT

| IC50 ([1]; pre-incubated for 4 hours) [nM] | FGFR1/FGFR3 IC50 ratio ([2]; pre-incubated for 4 hours) | IC50 ([2]; pre-incubated for 4 hours) [nM] | IC50 ([3]; pre-incubated for 4 hours) [nM] | IC50 [4, 8] [nM] | FGFR4/FGFR3 IC50 ratio ([2]; pre-incubated for 4 hours) | Compound | IC50 [1, 5] [nM] | IC50 [2, 5] [nM] | FGFR1/FGFR4 IC50 ratio [3, 5] | FGFR2/FGFR4 IC50 ratio [3, 5] | FGFR3/FGFR4 IC50 ratio [3, 5] | FGFR1/FGFR4 IC50 ratio ([3]; pre-incubated for 4 hours) | FGFR2/FGFR4 IC50 ratio ([3]; pre-incubated for 4 hours) | FGFR3/FGFR4 IC50 ratio ([3]; pre-incubated for 4 hours) | IC50 [3, 5] [nM] | IC50 [4, 6] [nM] | IC50 [4, 7] [nM] |
| --- | --- | --- | --- | --- | --- | --- | --- | --- | --- | --- | --- | --- | --- | --- | --- | --- | --- |
| 30 to 200 | >3 | 30 to 200 | < 10 |  |  | COc1cc(OC)c(F)c(N2Cc3cnc(-c4cncc(-n5ccnc5)c4)cc3C3(CC3)C2=O)c1F [Example 12, 6′-(5-(1H-imidazol-1-yl)pyridin-3-yl)-2′-(2,6-difluoro-3,5-dimethoxyphenyl)-1′H-spiro[cyclopropane-1,4′-[2,7]naphthyridin]-3′(2′H)-one] | 30 to 200 | 30 to 200 | >50 | >25 | >20 | >50 | >25 | >10 | < 10 | > 200 | > 200 |
| 30 to 200 | >3 | 30 to 200 | < 10 |  |  | COc1cc(OC)c(F)c(N2Cc3cnc(-c4cncc(C(=O)N5CCOCC5)c4)cc3C3(CC3)C2=O)c1F [Example 13, 2′-(2,6-difluoro-3,5-dimethoxyphenyl)-6′-(5-(morpholine-4-carbonyl)pyridin-3-yl)-1′H-spiro[cyclopropane-1,4′-[2,7]naphthyridin]-3′(2′H)-one] | 30 to 200 | 30 to 200 | >50 | >20 | >10 | >50 | >25 | >10 | < 10 | > 200 | > 200 |
| < 10 | >5 | < 10 | 10 to 30 | 10 to 30 |  | CNC(=O)c1ccc(-c2cc3c(cn2)CN(c2c(F)c(OC)cc(OC)c2F)C(=O)C32CC2)cn1 [Example 18, 5-(2′-(2,6-difluoro-3,5-dimethoxyphenyl)-3′-oxo-2′,3′-dihydro-1′H-spiro[cyclopropane-1,4′-[2,7]naphthyridine]-6′-yl)-N-methylpicolinamide] |  |  |  |  |  |  |  |  |  |  |  |
| < 10 | >5 | < 10 | 10 to 30 | 10 to 30 |  | COc1cc(OC)c(F)c(N2Cc3cnc(-c4cn(C)nc4C)cc3C3(CC3)C2=O)c1F [Example 21, 2′-(2,6-difluoro-3,5-dimethoxyphenyl)-6′-(1,3-dimethyl-1H-pyrazol-4-yl)-1′,2′-dihydro-3′H-spiro[cyclopropane-1,4′-[2,7]naphthyridin]-3′-one] |  |  |  |  |  |  |  |  |  |  |  |
| 10 to 30 | >5 | 10 to 30 | 10 to 30 | 30 to 200 |  | CCN1C(=O)N(c2c(F)c(OC)cc(OC)c2F)Cc2cnc(-c3ccccc3)cc21 [Example 22, 3-(2,6-difluoro-3,5-dimethoxyphenyl)-1-ethyl-7-phenyl-3,4-dihydropyrido[4,3-d]pyrimidin-2(1H)-one] |  |  |  |  |  |  |  |  |  |  |  |
| < 10 | >5 | < 10 | < 10 | 30 to 200 |  | CCN1C(=O)N(c2c(F)c(OC)cc(OC)c2F)Cc2cnc(-c3cccnc3)cc21 [Example 23, 3-(2,6-difluoro-3,5-dimethoxyphenyl)-1-ethyl-7-(pyridin-3-yl)-3,4-dihydropyrido[4,3-d]pyrimidin-2(1H)-one] |  |  |  |  |  |  |  |  |  |  |  |
| < 10 | >5 | < 10 | 10 to 30 | 10 to 30 | >5 | CCN1C(=O)N(c2c(F)c(OC)cc(OC)c2F)Cc2cnc(-c3ccc(C(C)(C)C#N)nc3)cc21 [Example 26, 2-(5-(3-(2,6-difluoro-3,5-dimethoxyphenyl)-1-ethyl-2-oxo-1,2,3,4-tetrahydropyrido[4,3-d]pyrimidin-7-yl)pyridin-2-yl)-2-methylpropanenitrile] |  |  |  |  |  |  |  |  |  |  |  |
| < 10 | >1 | < 10 | 10 to 30 | 10 to 30 | >5 | COc1cc(OC)c(F)c(N2Cc3cnc(-c4cn(C)nc4C)cc3N(C3CCCC3)C2=O)c1F [Example 32, 1-cyclopentyl-3-(2,6-difluoro-3,5-dimethoxyphenyl)-7-(1,3-dimethyl-1H-pyrazol-4-yl)-3,4-dihydropyrido[4,3-d]pyrimidin-2(1H)-one] |  |  |  |  |  |  |  |  |  |  |  |
| < 10 | >5 | < 10 | 30 to 200 | 30 to 200 | >5 | COc1cc(OC)c(F)c(N2Cc3cnc(-c4cn(C)nc4C)cc3N(C3CCOC3)C2=O)c1F (stereo not drawn) [Example 33, 3-(2,6-difluoro-3,5-dimethoxyphenyl)-7-(1,3-dimethyl-1H-pyrazol-4-yl)-1-(tetrahydrofuran-3-yl)-3,4-dihydropyrido[4,3-d]pyrimidin-2(1H)-one] |  |  |  |  |  |  |  |  |  |  |  |

Further lines, the molecule ahead of its results:

| Compound | IC50 ([1]; pre-incubated for 4 hours) [nM] | FGFR1/FGFR3 IC50 ratio ([2]; pre-incubated for 4 hours) | IC50 ([2]; pre-incubated for 4 hours) [nM] | IC50 ([3]; pre-incubated for 4 hours) [nM] | IC50 [4, 8] [nM] | FGFR4/FGFR3 IC50 ratio ([2]; pre-incubated for 4 hours) | IC50 [1, 5] [nM] | IC50 [2, 5] [nM] | FGFR1/FGFR4 IC50 ratio [3, 5] | FGFR2/FGFR4 IC50 ratio [3, 5] | FGFR3/FGFR4 IC50 ratio [3, 5] | FGFR1/FGFR4 IC50 ratio ([3]; pre-incubated for 4 hours) | FGFR2/FGFR4 IC50 ratio ([3]; pre-incubated for 4 hours) | FGFR3/FGFR4 IC50 ratio ([3]; pre-incubated for 4 hours) | IC50 [3, 5] [nM] | IC50 [4, 6] [nM] | IC50 [4, 7] [nM] |
| --- | --- | --- | --- | --- | --- | --- | --- | --- | --- | --- | --- | --- | --- | --- | --- | --- | --- |
| COc1cc(OC)c(F)c(N2Cc3cnc(-c4cncc(S(=O)(=O)N5CCOCC5)c4)cc3C3(CC3)C2=O)c1F [Example 14, 2′-(2,6-difluoro-3,5-dimethoxyphenyl)-6′-(5-(morpholinosulfonyl)pyridin-3-yl)-1′H-spiro[cyclopropane-1,4′-[2,7]naphthyridin]-3′(2′H)-one] | 30 to 200 | >5 | 30 to 200 | < 10 |  |  | 30 to 200 | 10 to 30 | >25 | >5 | >5 | >50 | >10 | >1 | < 10 | > 200 | > 200 |
| COc1cc(OC)c(F)c(N2Cc3cnc(-c4cncc(CN5CCOCC5)c4)cc3C3(CC3)C2=O)c1F [Example 16, 2′-(2,6-difluoro-3,5-dimethoxyphenyl)-6′-(5-(morpholinomethyl)pyridin-3-yl)-1′H-spiro[cyclopropane-1,4′-[2,7]naphthyridin]-3′(2′H)-one] | 30 to 200 | >1 | 30 to 200 | < 10 |  |  | 30 to 200 | 30 to 200 | >25 | >10 | >10 | >50 | >25 | >10 | < 10 | > 200 | > 200 |
| COc1cc(OC)c(F)c(N2Cc3cnc(-c4ccccc4)cc3C3(CC3)C2=O)c1F [Example 17, 2′-(2,6-difluoro-3,5-dimethoxyphenyl)-6′-phenyl-1′H-spiro[cyclopropane-1,4′-[2,7]naphthyridin]-3′(2′H)-one] | 30 to 200 | >10 | 10 to 30 | 10 to 30 |  |  |  |  |  |  |  |  |  |  |  |  | > 200 |
| CNC(=O)c1ccc(-c2cc3c(cn2)CN(c2c(F)c(OC)cc(OC)c2F)C(=O)C32CC2)cc1 [Example 19, 4-(2′-(2,6-difluoro-3,5-dimethoxyphenyl)-3′-oxo-2′,3′-dihydro-1′H-spiro[cyclopropane-1,4′-[2,7]naphthyridine]-6′-yl)-N-methylbenzamide] | < 10 | >5 | < 10 | < 10 | 10 to 30 |  |  |  |  |  |  |  |  |  |  |  |  |
| COc1cc(OC)c(F)c(N2Cc3cnc(-c4ccc(C#N)nc4)cc3C3(CC3)C2=O)c1F [Example 20, 5-(2′-(2,6-difluoro-3,5-dimethoxyphenyl)-3′-oxo-2′,3′-dihydro-1′H-spiro[cyclopropane-1,4′-[2,7]naphthyridine]-6′-yl)picolinonitrile] | 10 to 30 | >5 | 10 to 30 | 10 to 30 | 30 to 200 |  |  |  |  |  |  |  |  |  |  |  |  |
| CCN1C(=O)N(c2c(F)c(OC)cc(OC)c2F)Cc2cnc(-c3ccc(CN4CC[C@H](C#N)C4)cc3)cc21 [Example 25, (S)-1-(4-(3-(2,6-difluoro-3,5-dimethoxyphenyl)-1-ethyl-2-oxo-1,2,3,4-tetrahydropyrido[4,3-d]pyrimidin-7-yl)benzyl)pyrrolidine-3-carbonitrile] | < 10 | >5 | < 10 | 10 to 30 | 10 to 30 | >5 |  |  |  |  |  |  |  |  |  |  |  |
| CCN1C(=O)N(c2cc(OC)cc(C(=O)NC)c2F)Cc2cnc(-c3ccc(C4(C#N)CCC4)nc3)cc21 [Example 28, 3-(7-(6-(1-cyanocyclobutyl)pyridin-3-yl)-1-ethyl-2-oxo-1,2-dihydropyrido[4,3-d]pyrimidin-3(4H)-yl)-2-fluoro-5-methoxy-N-methylbenzamide] | 30 to 200 |  | 30 to 200 | > 200 |  |  |  |  |  |  |  |  |  |  |  |  | > 200 |
| COc1cc(OC)c(F)c(N2Cc3cnc(-c4cn(C)nc4C)cc3N(CC3CC3)C2=O)c1F [Example 29, 1-(cyclopropylmethyl)-3-(2,6-difluoro-3,5-dimethoxyphenyl)-7-(1,3-dimethyl-1H-pyrazol-4-yl)-3,4-dihydropyrido[4,3-d]pyrimidin-2(1H)-one] | < 10 | >1 | < 10 | 10 to 30 | 10 to 30 | >5 |  |  |  |  |  |  |  |  |  |  |  |
| COc1cc(OC)c(F)c(N2Cc3cnc(-c4cn(C)nc4C)cc3N(Cc3ccc(F)cc3)C2=O)c1F [Example 34, 3-(2,6-difluoro-3,5-dimethoxyphenyl)-7-(1,3-dimethyl-1H-pyrazol-4-yl)-1-(4-fluorobenzyl)-3,4-dihydropyrido[4,3-d]pyrimidin-2(1H)-one] | 10 to 30 | >5 | < 10 | 30 to 200 | 30 to 200 | >10 |  |  |  |  |  |  |  |  |  |  |  |
